Assay results from ChEMBL document CHEMBL1129556, “Design, synthesis, and evaluation of latent alkylating agents activated by glutathione S-transferase” (J Med Chem, 1996).

Legend:
Homo sapiens [1] = organism: Homo sapiens; assay: Inhibitory activity (treatment time 120 min) against MCF-7 neo cell line; type: functional; settings: MCF7, 2 h
Homo sapiens [2] = organism: Homo sapiens; assay: Inhibitory activity (treatment time 120 min) against MCF-7 pi cell line; type: functional; settings: MCF7, 2 h

Compound | IC50 (Homo sapiens [1]) [µM] | IC50 (Homo sapiens [2]) [µM]
CCOC(=O)CNC(=O)C(CS(=O)(=O)CCOC(=O)N(CCCl)CCCl)NC(=O)CCC(N)C(=O)OCC (stereo not given) | 102 | 68.8
NC(CCC(=O)NC(CS(=O)(=O)CCOP(=O)(N(CCBr)CCBr)N(CCBr)CCBr)C(=O)NC(C(=O)O)c1ccccc1)C(=O)O (stereo not given) | 16.1 | 11.4
NC(CCC(=O)NC(CS(=O)(=O)CCOC(=O)N(CCCl)CCCl)C(=O)NCC(=O)O)C(=O)O (stereo not given) | 133 | 85.8
NC(CCC(=O)NC(CS(=O)(=O)CCOP(=O)(N(CCCl)CCCl)N(CCCl)CCCl)C(=O)NC(C(=O)O)c1ccccc1)C(=O)O (stereo not given) | 39.9 | 14.4
NC(CCC(=O)NC(CS(=O)(=O)C(COP(=O)(N(CCCl)CCCl)N(CCCl)CCCl)c1ccccc1)C(=O)NCC(=O)O)C(=O)O (stereo not given) | 21.3 | 13.5
